Source: ChEMBL document CHEMBL3525977, “Differential impact of P-glycoprotein (ABCB1) and breast cancer resistance protein (ABCG2) on axitinib brain accumulation and oral plasma pharmacokinetics” (Drug Metab Dispos, 2011)

Legend:
[1] = AUC (0 to 1 hr) in Abcb1a/1b;Abcg2 (-/-) FVB mouse plasma at 10 mg/kg, po by liquid chromatography-tandem mass spectrometry; type: ADME, organism-based; parameters: time < 1 hr, dose 10 mg/kg, route oral
[2] = AUC (0 to 4 hrs) in Abcg2 (-/-) FVB mouse plasma at 10 mg/kg, po by liquid chromatography-tandem mass spectrometry; type: ADME, organism-based; parameters: time < 4 hr, dose 10 mg/kg, route oral
[3] = AUC (0 to 4 hrs) in Abcb1a/1b;Abcg2 (-/-) FVB mouse plasma at 10 mg/kg, po by liquid chromatography-tandem mass spectrometry; type: ADME, organism-based; parameters: time < 4 hr, dose 10 mg/kg, route oral
[4] = Drug level in brain of Abcg2 (-/-) FVB mouse at 10 mg/kg, po after 1 hr by liquid chromatography-tandem mass spectrometry; type: ADME, organism-based; parameters: dose 10 mg/kg, route oral; conditions: read-out: Drug uptake
[5] = Drug transport in MDCK2 cells at 1 uM after 1 to 4 hrs in presence of 5 uM ABCB1 inhibitor zosuquidar; type: ADME, cell-based, Canis lupus familiaris; conditions: dog, mdck-ii
[6] = Drug level in brain of FVB mouse at 10 mg/kg, po after 1 hr by liquid chromatography-tandem mass spectrometry; type: ADME, organism-based; parameters: dose 10 mg/kg, route oral; conditions: read-out: Drug uptake
[7] = AUC (0 to 4 hrs) in Abcb1a/1b (-/-) FVB mouse plasma at 10 mg/kg, po by liquid chromatography-tandem mass spectrometry; type: ADME, organism-based; parameters: time < 4 hr, dose 10 mg/kg, route oral
[8] = Efflux ratio in wild type MDCK2 cells at 1 uM after 1 to 4 hrs; type: ADME, cell-based, Canis lupus familiaris, MDCK-II; conditions: dog, MDCK
[9] = Drug level in brain of Abcb1a/1b;Abcg2 (-/-) FVB mouse at 10 mg/kg, po after 4 hrs by liquid chromatography-tandem mass spectrometry; type: ADME, organism-based; parameters: dose 10 mg/kg, route oral; conditions: read-out: Drug uptake
Brain [10] = experiment: Drug level in brain of Abcb1a/1b (-/-) FVB mouse at 10 mg/kg, po after 1 hr by liquid chromatography-tandem mass spectrometry relative to wild type FVB mouse; type: ADME, organism-based; parameters: dose 10 mg/kg, route oral; conditions: in vivo
[11] = Drug transport in MDCK2 cells at 1 uM after 1 to 4 hrs in presence of 5 uM ABCB1/ABCG2 inhibitor elacridar; type: ADME, cell-based, Canis lupus familiaris; conditions: dog, mdck-ii
Brain [12] = experiment: Drug level in brain of Abcg2 (-/-) FVB mouse at 10 mg/kg, po after 4 hrs by liquid chromatography-tandem mass spectrometry relative to wild type FVB mouse; type: ADME, organism-based; parameters: dose 10 mg/kg, route oral; conditions: in vivo
[13] = Drug level in brain of Abcb1a/1b (-/-) FVB mouse at 10 mg/kg, po after 1 hr by liquid chromatography-tandem mass spectrometry; type: ADME, organism-based; parameters: dose 10 mg/kg, route oral; conditions: read-out: Drug uptake
[14] = Drug level in brain of Abcb1a/1b (-/-) FVB mouse at 10 mg/kg, po after 4 hrs by liquid chromatography-tandem mass spectrometry; type: ADME, organism-based; parameters: dose 10 mg/kg, route oral; conditions: read-out: Drug uptake
ABCB1 = ABCB1 (Homo sapiens, UniProt P08183); experiment: Drug transport in MDCK2 cells expressing human ABCB1 assessed as transporter-mediated efflux ratio at 1 uM after 1 to 4 hrs; type: ADME, cell-based; conditions: MDCK-MDR1
ABCB1, sequence (P08183 whole entry): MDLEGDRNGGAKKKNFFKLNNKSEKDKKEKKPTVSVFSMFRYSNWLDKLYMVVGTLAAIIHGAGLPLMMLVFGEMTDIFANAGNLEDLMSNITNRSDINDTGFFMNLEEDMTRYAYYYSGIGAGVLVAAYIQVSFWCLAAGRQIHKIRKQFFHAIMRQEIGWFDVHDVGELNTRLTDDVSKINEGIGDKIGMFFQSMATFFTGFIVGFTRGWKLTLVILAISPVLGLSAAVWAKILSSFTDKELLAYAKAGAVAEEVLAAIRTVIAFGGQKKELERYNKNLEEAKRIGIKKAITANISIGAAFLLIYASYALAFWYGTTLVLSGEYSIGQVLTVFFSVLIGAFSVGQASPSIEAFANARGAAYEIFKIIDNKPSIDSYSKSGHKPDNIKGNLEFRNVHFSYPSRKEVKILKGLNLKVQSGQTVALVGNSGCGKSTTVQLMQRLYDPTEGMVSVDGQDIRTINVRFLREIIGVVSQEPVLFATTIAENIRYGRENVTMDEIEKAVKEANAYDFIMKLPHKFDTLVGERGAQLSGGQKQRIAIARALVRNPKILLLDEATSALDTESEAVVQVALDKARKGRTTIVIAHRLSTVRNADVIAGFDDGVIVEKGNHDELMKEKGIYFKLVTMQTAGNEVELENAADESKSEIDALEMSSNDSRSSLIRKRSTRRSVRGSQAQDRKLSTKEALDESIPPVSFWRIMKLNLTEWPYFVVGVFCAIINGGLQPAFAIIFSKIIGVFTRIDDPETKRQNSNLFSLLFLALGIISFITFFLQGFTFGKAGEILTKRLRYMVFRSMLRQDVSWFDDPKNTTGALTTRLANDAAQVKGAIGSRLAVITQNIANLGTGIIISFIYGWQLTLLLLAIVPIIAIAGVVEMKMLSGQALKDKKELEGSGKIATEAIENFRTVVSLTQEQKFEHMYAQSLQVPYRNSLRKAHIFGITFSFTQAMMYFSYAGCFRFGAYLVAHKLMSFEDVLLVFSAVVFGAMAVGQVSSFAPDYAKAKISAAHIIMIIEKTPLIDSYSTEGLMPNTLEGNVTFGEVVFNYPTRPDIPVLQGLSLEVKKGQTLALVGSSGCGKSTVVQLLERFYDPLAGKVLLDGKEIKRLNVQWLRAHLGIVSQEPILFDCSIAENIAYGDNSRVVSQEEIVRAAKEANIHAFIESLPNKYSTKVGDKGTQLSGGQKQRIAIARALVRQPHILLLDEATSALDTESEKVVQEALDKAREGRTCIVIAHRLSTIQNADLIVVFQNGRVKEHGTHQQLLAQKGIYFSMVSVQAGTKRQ

Brain [15] = experiment: Drug level in brain of Abcb1a/1b;Abcg2 (-/-) FVB mouse at 10 mg/kg, po after 1 hr by liquid chromatography-tandem mass spectrometry relative to wild type FVB mouse; type: ADME, organism-based; parameters: dose 10 mg/kg, route oral; conditions: in vivo
[16] = AUC (0 to 1 hr) in FVB mouse plasma at 10 mg/kg, po by liquid chromatography-tandem mass spectrometry; type: ADME, organism-based; parameters: time < 1 hr, dose 10 mg/kg, route oral
Brain [17] = experiment: Drug level in brain of Abcb1a/1b;Abcg2 (-/-) FVB mouse at 10 mg/kg, po after 4 hrs by liquid chromatography-tandem mass spectrometry relative to wild type FVB mouse; type: ADME, organism-based; parameters: dose 10 mg/kg, route oral; conditions: in vivo
Brain [18] = experiment: Drug level in brain of Abcb1a/1b (-/-) FVB mouse at 10 mg/kg, po after 4 hrs by liquid chromatography-tandem mass spectrometry relative to wild type FVB mouse; type: ADME, organism-based; parameters: dose 10 mg/kg, route oral; conditions: in vivo
[19] = Drug level in brain of Abcb1a/1b;Abcg2 (-/-) FVB mouse at 10 mg/kg, po after 1 hr by liquid chromatography-tandem mass spectrometry; type: ADME, organism-based; parameters: dose 10 mg/kg, route oral; conditions: read-out: Drug uptake
[20] = Drug level in brain of Abcg2 (-/-) FVB mouse at 10 mg/kg, po after 4 hrs by liquid chromatography-tandem mass spectrometry; type: ADME, organism-based; parameters: dose 10 mg/kg, route oral; conditions: read-out: Drug uptake
Brain [21] = experiment: Drug level in brain of Abcg2 (-/-) FVB mouse at 10 mg/kg, po after 1 hr by liquid chromatography-tandem mass spectrometry relative to wild type FVB mouse; type: ADME, organism-based; parameters: dose 10 mg/kg, route oral; conditions: in vivo
[22] = AUC (0 to 1 hr) in Abcg2 (-/-) FVB mouse plasma at 10 mg/kg, po by liquid chromatography-tandem mass spectrometry; type: ADME, organism-based; parameters: time < 1 hr, dose 10 mg/kg, route oral
[23] = biological target: T1, Broad substrate specificity ATP-binding cassette transporter ABCG2 (Mus musculus, UniProt Q7TMS5); experiment: Drug transport in MDCK2 cells expressing mouse ABCG2 assessed as transporter-mediated efflux ratio at 1 uM after 1 to 4 hrs; type: ADME, cell-based; conditions: mdck2, 1 µM
T1 sequence (Q7TMS5 whole entry): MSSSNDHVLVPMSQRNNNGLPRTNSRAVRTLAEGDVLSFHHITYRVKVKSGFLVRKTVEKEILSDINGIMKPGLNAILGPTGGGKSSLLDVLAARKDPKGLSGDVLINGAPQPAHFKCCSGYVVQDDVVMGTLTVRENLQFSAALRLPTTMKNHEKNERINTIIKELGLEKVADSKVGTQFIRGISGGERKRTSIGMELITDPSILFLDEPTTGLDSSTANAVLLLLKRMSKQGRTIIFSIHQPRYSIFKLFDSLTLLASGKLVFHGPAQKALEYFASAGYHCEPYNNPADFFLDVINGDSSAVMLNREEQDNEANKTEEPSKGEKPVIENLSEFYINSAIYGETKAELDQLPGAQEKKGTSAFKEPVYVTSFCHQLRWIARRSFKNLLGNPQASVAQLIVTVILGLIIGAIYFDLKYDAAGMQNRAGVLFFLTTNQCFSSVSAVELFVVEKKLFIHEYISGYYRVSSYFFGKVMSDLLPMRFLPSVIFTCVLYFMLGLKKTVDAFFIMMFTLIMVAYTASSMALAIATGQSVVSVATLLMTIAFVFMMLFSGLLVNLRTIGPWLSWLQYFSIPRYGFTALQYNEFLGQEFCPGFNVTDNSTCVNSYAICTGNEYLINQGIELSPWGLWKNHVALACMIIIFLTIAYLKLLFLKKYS

[24] = AUC (0 to 1 hr) in Abcb1a/1b (-/-) FVB mouse plasma at 10 mg/kg, po by liquid chromatography-tandem mass spectrometry; type: ADME, organism-based; parameters: time < 1 hr, dose 10 mg/kg, route oral
ABCG2 = biological target: T2, ABCG2 (Homo sapiens, UniProt Q9UNQ0); experiment: Drug transport in MDCK2 cells expressing human ABCG2 assessed as transporter-mediated efflux ratio at 1 uM after 1 to 4 hrs; type: ADME, cell-based
T2 sequence (Q9UNQ0 whole entry): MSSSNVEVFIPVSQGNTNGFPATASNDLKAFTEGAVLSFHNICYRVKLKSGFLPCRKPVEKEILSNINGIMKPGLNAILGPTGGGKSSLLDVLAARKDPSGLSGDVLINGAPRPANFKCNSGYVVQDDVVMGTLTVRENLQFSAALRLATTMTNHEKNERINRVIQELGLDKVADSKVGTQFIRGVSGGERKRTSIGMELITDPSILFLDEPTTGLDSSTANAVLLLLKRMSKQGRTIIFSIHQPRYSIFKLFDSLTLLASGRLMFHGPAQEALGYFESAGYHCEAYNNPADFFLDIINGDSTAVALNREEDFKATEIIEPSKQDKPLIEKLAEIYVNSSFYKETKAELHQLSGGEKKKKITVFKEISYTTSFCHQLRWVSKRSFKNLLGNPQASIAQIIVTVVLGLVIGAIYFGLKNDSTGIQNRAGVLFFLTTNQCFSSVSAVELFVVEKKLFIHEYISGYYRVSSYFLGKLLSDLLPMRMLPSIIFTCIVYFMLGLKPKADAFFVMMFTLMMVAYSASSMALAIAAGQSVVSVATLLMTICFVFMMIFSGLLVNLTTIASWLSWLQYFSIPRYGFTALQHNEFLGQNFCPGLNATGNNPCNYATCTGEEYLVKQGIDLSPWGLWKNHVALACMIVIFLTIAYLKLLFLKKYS

[25] = AUC (0 to 4 hrs) in FVB mouse plasma at 10 mg/kg, po by liquid chromatography-tandem mass spectrometry; type: ADME, organism-based; parameters: time < 4 hr, dose 10 mg/kg, route oral
[26] = Drug level in brain of FVB mouse at 10 mg/kg, po after 4 hrs by liquid chromatography-tandem mass spectrometry; type: ADME, organism-based; parameters: dose 10 mg/kg, route oral; conditions: read-out: Drug uptake

AUC(0-t) at 1 h [1]: 1400 ng·h/mL | AUC(0-t) at 4 h [2]: 4670 ng·h/mL | AUC(0-t) at 4 h [3]: 4950 ng·h/mL | concentration at 1 h [4]: 80 ng/g | Drug transport [5]: Not Active | concentration at 1 h [6]: 100 ng/g | AUC(0-t) at 4 h [7]: 3950 ng·h/mL | efflux ratio at 1 µM [8]: 1.4 | concentration at 4 h [9]: 250 ng/g | Ratio (Brain [10]): 6.3 | Drug transport [11]: Not Active | Ratio (Brain [12]): 1.1 | concentration at 1 h [13]: 640 ng/g | concentration at 4 h [14]: 47 ng/g | efflux ratio at 1 µM (ABCB1): 5.3 | Ratio (Brain [15]): 19.6 | AUC(0-t) at 1 h [16]: 1090 ng·h/mL | Ratio (Brain [17]): 42.4 | Ratio (Brain [18]): 7.9 | concentration at 1 h [19]: 1980 ng/g | concentration at 4 h [20]: 7 ng/g | Ratio (Brain [21]): 0.8 | AUC(0-t) at 1 h [22]: 1760 ng·h/mL | Ratio [23]: 3.4 | AUC(0-t) at 1 h [24]: 950 ng·h/mL | efflux ratio at 1 µM (ABCG2): 1.3 | AUC(0-t) at 4 h [25]: 2680 ng·h/mL | concentration at 4 h [26]: 6 ng/g
Structure (SMILES): CNC(=O)c1ccccc1Sc1ccc2c(/C=C/c3ccccn3)n[nH]c2c1 [AXITINIB]
